Article PMC12423301, “Astrocytic monoamine oxidase B (MAOB)–gamma-aminobutyric acid (GABA) axis as a molecular brake on repair following spinal cord injury” (Signal Transduction and Targeted Therapy, 2025)

Assays:
APP/PS1 transgenic mice = assay: Cognitive tests in APP/PS1 transgenic mice; format: in vivo, mouse
in vivo = assay: in vivo; set-up: species or system SD Rat; settings: rat
Description: Next, we tested whether pharmacological inhibition of MAOB facilitates recovery after SCI. […] The pharmacokinetic (PK) analysis of KDS2010 was performed in mice, rats, and nonhuman primates. […] We substituted the mouse SCI model with a rat SCI model, which has been reported to be better for pharmacological evaluation and closer to human SCI.[21] We performed Basso, Beattie and Bresnahan (BBB) locomotor test[22] to assess the functional recovery once a week for a total of 11 weeks (Fig. 2a). […] In addition to the BBB locomotor test, we performed the ladder rung test by measuring the percentage of hindlimb steps without slipping as rats walked along a horizontal ladder[23] (Fig. 2d, e). […] We then assessed the tissue recovery using EC staining on cross and longitudinal sections of the spinal cord. […]
In a pharmacokinetic study, plasma PK parameters were measured after a single oral administration of […]
dose group and at 4 to 6 hours after administration in the 30 mg/kg dose group. In the elimination phase, the […]
Systemic exposure (AUClast) to the test substance was 30587 and 80770 ng*hr/mL, respectively.
At this time, AUC0-inf was […]
time, AUC0-inf was 192000 ng eq.h/mL. […]

[1] = Preclinical pharmacokinetics in mice; format: in vivo, mouse
[2] = cynomolgus monkey, in vivo, po
rat SCI model = assay: Western blot and GABA ELISA of rat spinal cord tissue; format: in vivo; settings: PI 10w
Description: Approximately 24 h after drug treatment, primary mouse spinal cord astrocytes or spinal cord tissues were lysed in RIPA buffer (MB030-0050, ROCKLAND) containing protease and phosphatase inhibitors (1861280, Thermo Fisher Scientific). The protein concentration was measured using the Pierce™ BCA Protein Assay Kit (Thermo Fisher Scientific). Each sample was then used separately for Western blot or GABA ELISA analysis. Western blot analysis was performed following established protocols,[73],[74] with 20 μg of spinal cord tissue or 10 μg of astrocyte protein samples were loaded onto SDS-PAGE gels, transferred to PVDF membranes, and blocked with 5% non-fat milk. The membranes were incubated overnight at 4 °C with primary antibodies, including rabbit anti-MAOB (1:1000, Abcam), rabbit anti-BDNF (1:1000, Abcam), mouse anti-TrkB (1:1000, R&D Systems), and rabbit anti-β-actin (1:1000, Cell Signaling Technology). […] The bands were visualized using enhanced chemiluminescence, and band intensity was quantified using ImageJ software. For enzyme-linked immunosorbent assay (ELISA), GABA quantification was performed using an ELISA kit (BA-E-2500, ImmuSmol) according to the manufacturer’s instructions, utilizing 20 μg of protein extracted from spinal cord tissues.

[3] = tested on: GABAA receptor-mediated currents from lamina II dorsal horn neurons; assay: Tonic GABA current recording; format: in vivo, rat; settings: SCI + KDS 2w, PI 10w
[4] = ICR mouse, 5 mg/kg single intravenous administration
[5] = in vivo, APP/PS1 mouse, 1 mg/kg single oral administration
[6] = in vivo, APP/PS1 mouse, 10 mg/kg single oral administration
[7] = in vivo, ICR mouse, 5 mg/kg single intravenous administration
[8] = in vivo, ICR mouse, 5 mg/kg single oral administration
[9] = in vivo, ICR mouse, 10 mg/kg single oral administration
[10] = in vivo, ICR mouse, 30 mg/kg single oral administration

For `CS(=O)(=O)O.C[C@H](NCc1ccc(-c2ccc(C(F)(F)F)cc2)cc1)C(N)=O` [KDS2010, (S)-2-(((4’-Trifluoromethylbiphenyl-4-yl)methyl)amino)propanamide methane-sulfonate], the passive avoidance test (APP/PS1 transgenic mice; 1 mg/kg and 10 mg/kg, repeated administration for 2 weeks, vs APP/PS1 control group) was “statistically significant cognitive function improvement effect”, the “Morris water maze test” value (APP/PS1 transgenic mice; 10 mg/kg for 27 to 37 days) was “statistically significant improvement” and the cognitive function (APP/PS1 transgenic mice; 4-week repeated dosing test) was “statistically significant cognitive function effect”. The AUC(0-inf) (in vivo; SD, iv, 1 mg/kg) was 164 ± 13.1 ng·h/mL, the Vd/F (in vivo; SD, iv, 1 mg/kg) was 18.377 ± 2.743 L/kg and the half-life (in vivo; SD, iv, 1 mg/kg) was 2.1 ± 0.3 h. For the same compound, the AUC(0-inf) (in vivo; SD, po, 9 mg/kg) was 9120 ± 4130 ng·h/mL, the Vd/F (in vivo; SD, po, 9 mg/kg) was 19.7 ± 4.34 L/kg and the half-life (in vivo; SD, po, 9 mg/kg) was 14.6 ± 8.7 h. For the same compound, the AUC(0-t) (in vivo; Sprague-Dawley) was ~3000 ng·h/mL, the AUC (in vivo; Sprague-Dawley, po, 9 mg/kg) was 3000 ng·h/mL and the CL/F (in vivo; Sprague-Dawley, po, 9 mg/kg) was 19 mL/min/kg. It also gave a Cmax (in vivo; Sprague-Dawley, po, 9 mg/kg) of 508 ng/mL, a half-life (in vivo; Sprague-Dawley, po, 9 mg/kg) of 10.8 h and a CL/F [1, 4] of 28.47 ± 1.37 mL/min/kg. For the same compound, the Vd/F [1, 4] was 10.439 ± 0.682 L/kg, the AUC(0-inf) [1, 5] was 1130 ± 173 ng·h/mL and the half-life [1, 5] was 4.76 ± 0.43 h. It also gave a CL/F ([1]; in vivo, APP/PS1 mouse, 1 mg/kg single oral administration, read-out: CL/F (converted)) of 15 mL/min/kg, a Vd/F ([1]; in vivo, APP/PS1 mouse, 1 mg/kg single oral administration, read-out: Vd/F) of 6.13 ± 0.767 L/kg and an AUC(0-inf) [1, 6] of 12900 ± 740 ng·h/mL. It also gave a half-life [1, 6] of 5.7 ± 0.7 h, a CL/F ([1]; in vivo, APP/PS1 mouse, 10 mg/kg single oral administration, read-out: CL/F (converted)) of 14.3 mL/min/kg and a Vd/F ([1]; in vivo, APP/PS1 mouse, 10 mg/kg single oral administration, read-out: Vd/F) of 7.01 ± 0.934 L/kg. It also gave an AUC(0-inf) [1, 7] of 3590 ± 71.7 ng·h/mL, a half-life [1, 7] of 4.2 ± 0.2 h and an AUC(0-inf) [1, 8] of 4180 ± 100 ng·h/mL. The half-life [1, 8] was 4.2 ± 0.1 h, the CL/F ([1]; in vivo, ICR mouse, 5 mg/kg single oral administration, read-out: CL/F (converted)) was 18 mL/min/kg and the Vd/F ([1]; in vivo, ICR mouse, 5 mg/kg single oral administration, read-out: Vd/F) was 6.6 ± 0.38 L/kg. For the same compound, the AUC(0-inf) [1, 9] was 7920 ± 457 ng·h/mL, the half-life [1, 9] was 4.4 ± 0.2 h and the CL/F ([1]; in vivo, ICR mouse, 10 mg/kg single oral administration, read-out: CL/F (converted)) was 22 mL/min/kg. For the same compound, the Vd/F ([1]; in vivo, ICR mouse, 10 mg/kg single oral administration, read-out: Vd/F) was 8.41 ± 0.843 L/kg, the AUC(0-inf) [1, 10] was 27100 ± 1090 ng·h/mL and the half-life [1, 10] was 4.3 ± 0.4 h. For the same compound, the CL/F ([1]; in vivo, ICR mouse, 30 mg/kg single oral administration, read-out: CL/F (converted)) was 14.5 mL/min/kg, the Vd/F ([1]; in vivo, ICR mouse, 30 mg/kg single oral administration, read-out: Vd/F) was 5.45 ± 0.512 L/kg and the approximate lethal dose [2] was ≥ 100 mg/kg. For the same compound, the “GABA levels (ELISA)” value (rat SCI model; SCI + KDS 1 d/Re) was “significant reduction”, the “MAOB protein level (Western blotting)” value (rat SCI model; SCI+KDS 1d/Re vs SCI+V) was “significantly reduced” and the “tonic GABA current density” value [3] was “significantly recovered”.
